In the supplement of paper PMC10307832:

Tests used:
Assay in all cases: relative viability (nuclei count vs DMSO), 5 days (fraction); higher = more cells survive
Tozasertib + Foretinib = compound: Cc1cc(Nc2cc(N3CCN(C)CC3)nc(Sc3ccc(NC(=O)C4CC4)cc3)n2)n[nH]1 [Tozasertib] + COc1cc2c(Oc3ccc(NC(=O)C4(C(=O)Nc5ccc(F)cc5)CC4)cc3F)ccnc2cc1OCCCN1CCOCC1 [Foretinib] (partner 0.25 µM)
Summary of the method: (§1)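 Lung cancer cell lines in 1536-well plates got either a single drug or a fixed anchor-drug dose together with five library-drug doses (not always all listed) in √10 steps, by pin tool, on the day after seeding. Nuclei were counted after 5 days, and relative viability is the treated-to-vehicle ratio of nuclei counts. Values are medians of duplicate plates.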

Tozasertib + Olaparib = compound: Cc1cc(Nc2cc(N3CCN(C)CC3)nc(Sc3ccc(NC(=O)C4CC4)cc3)n2)n[nH]1 [Tozasertib] + O=C(c1cc(Cc2n[nH]c(=O)c3ccccc23)ccc1F)N1CCN(C(=O)C2CC2)CC1 [Olaparib] (partner 8 µM)
Summary of the method: as §1

Tozasertib + Pictilisib = compound: Cc1cc(Nc2cc(N3CCN(C)CC3)nc(Sc3ccc(NC(=O)C4CC4)cc3)n2)n[nH]1 [Tozasertib] + CS(=O)(=O)N1CCN(Cc2cc3nc(-c4cccc5[nH]ncc45)nc(N4CCOCC4)c3s2)CC1 [Pictilisib] (partner 1 µM)
Summary of the method: as §1

Tozasertib + Crizotinib = compound: Cc1cc(Nc2cc(N3CCN(C)CC3)nc(Sc3ccc(NC(=O)C4CC4)cc3)n2)n[nH]1 [Tozasertib] + C[C@@H](Oc1cc(-c2cnn(C3CCNCC3)c2)cnc1N)c1c(Cl)ccc(F)c1Cl [Crizotinib] (partner 1 µM)
Summary of the method: as §1

Tozasertib + Linsitinib = compound: Cc1cc(Nc2cc(N3CCN(C)CC3)nc(Sc3ccc(NC(=O)C4CC4)cc3)n2)n[nH]1 [Tozasertib] + C[C@]1(O)C[C@@H](c2nc(-c3ccc4ccc(-c5ccccc5)nc4c3)c3c(N)nccn32)C1 [Linsitinib] (partner 1 µM)
Summary of the method: as §1

| Cell Line | relative viability (Tozasertib + Foretinib; first compound 0.004 µM) | relative viability (Tozasertib + Foretinib; first compound 0.04 µM) | relative viability (Tozasertib + Foretinib; first compound 0.1265 µM) | relative viability (Tozasertib + Olaparib; first compound 0.004 µM) | relative viability (Tozasertib + Olaparib; first compound 0.01265 µM) | relative viability (Tozasertib + Olaparib; first compound 0.04 µM) | relative viability (Tozasertib + Olaparib; first compound 0.1265 µM) | relative viability (Tozasertib + Pictilisib; first compound 0.004 µM) | relative viability (Tozasertib + Pictilisib; first compound 0.01265 µM) | relative viability (Tozasertib + Pictilisib; first compound 0.04 µM) | relative viability (Tozasertib + Pictilisib; first compound 0.1265 µM) | relative viability (Tozasertib + Crizotinib; first compound 0.004 µM) | relative viability (Tozasertib + Crizotinib; first compound 0.01265 µM) | relative viability (Tozasertib + Crizotinib; first compound 0.04 µM) | relative viability (Tozasertib + Crizotinib; first compound 0.1265 µM) | relative viability (Tozasertib + Linsitinib; first compound 0.004 µM) | relative viability (Tozasertib + Linsitinib; first compound 0.01265 µM) | relative viability (Tozasertib + Linsitinib; first compound 0.04 µM) | relative viability (Tozasertib + Linsitinib; first compound 0.1265 µM) | relative viability (Tozasertib + Foretinib; first compound 0.01265 µM) |
| --- | --- | --- | --- | --- | --- | --- | --- | --- | --- | --- | --- | --- | --- | --- | --- | --- | --- | --- | --- | --- |
| NCI-H650 | 1.14 | 1.02 | 0.879 | 0.381 | 0.315 | 0.357 | 0.325 | 0.917 | 0.813 | 0.823 | 0.756 | 0.8 | 0.73 | 0.574 | 0.397 | 0.967 | 0.771 | 0.754 | 0.513 |  |
| NCI-H661 | 1.09 | 1.03 | 0.357 | 0.807 | 0.791 | 0.663 | 0.448 | 0.461 | 0.394 | 0.404 | 0.349 | 1.06 | 1.05 | 0.885 | 0.605 | 0.61 | 0.564 | 0.497 | 0.402 | 0.982 |
| NCI-H727 | 1.02 | 0.958 | 0.689 | 0.659 | 0.79 | 0.678 | 0.624 | 0.357 | 0.354 | 0.391 | 0.299 | 0.683 | 0.783 | 0.787 | 0.402 | 0.258 | 0.287 | 0.368 | 0.236 | 0.984 |
| NCI-H838 | 0.977 | 1.05 | 0.921 | 0.814 | 0.752 | 0.815 | 0.386 | 0.453 | 0.425 | 0.427 | 0.202 | 0.939 | 0.863 | 0.898 | 0.706 | 1.07 | 0.972 | 1.15 | 0.861 | 0.922 |
| NCI-H1355 | 0.942 | 0.901 | 0.853 | 0.748 | 0.694 | 0.689 | 0.545 | 0.426 | 0.461 | 0.52 | 0.272 | 1.09 | 1.09 | 1.09 | 0.775 | 0.751 | 0.816 | 0.912 | 0.722 | 0.926 |
| NCI-H1437 | 1.22 | 1.2 | 1.19 | 0.66 | 0.58 | 0.595 | 0.541 | 0.479 | 0.385 | 0.448 | 0.318 | 0.929 | 0.839 | 0.721 | 0.922 | 1.09 | 0.971 | 1 | 0.779 | 1.25 |
| NCI-H1651 | 0.694 | 0.856 | 0.87 | 0.189 | 0.158 | 0.173 | 0.167 | 0.655 | 0.62 | 0.634 | 0.377 | 0.892 | 0.81 | 0.906 | 0.867 | 1.19 | 0.899 | 0.972 | 0.923 | 0.773 |
| NCI-H1666 | 0.978 | 0.97 | 0.762 | 0.717 | 0.727 | 0.729 | 0.705 | 0.455 | 0.412 | 0.586 | 0.305 | 0.974 | 1.27 | 0.958 | 0.578 | 0.835 | 0.854 | 0.861 | 0.64 | 0.879 |
